According to patent US9896415B2, “Chalcone derivatives having an anti-allergic activity” (UNIVERSITE CLAUDE BERNARD LYON I, priority 2013, dated 2018):
Entries after “also recorded” stand apart in the source; their conditions may differ. Where two headings read alike, the source gives them in different places.

Tests used:
asthma model in mice = assay: Ovalbumin (OVA) asthma model in mice: plethysmography, broncho-alveolar wash and lung cytology; format: in vivo; details: one day after last OVA challenge; for intrabronchial infiltrate: broncho-alveolar wash; for respiratory function: Penh in response to increasing doses of metacholine: non-invasive plethysmography, i.p. daily
From the text: b) Effect on the Respiratory Function in an Asthma Model in Mice
The compounds according to the invention were also subject to tests in vivo. Cromoglycate was used as a reference compound since presently it is the only compound presently marketed having been described as having an effect on the degranulation of basophils.
• The model used is an ovalbumin model (ova). The procedure includes: • 4 weeks of sensitization with ova solubilized in a solution containing alum and injected intra-peritoneally (I-P). • 1 week of challenge with 3 intranasal challenges of ova solubilized in phosphate buffer PBS for 3 subsequent days. • Injections of PBS, of compound (I.1) or of cromoglycate were carried out all along the challenge phase and continued until the date of analysis in an amount of one injection per day intra-peritoneally. • The analyses were carried out 1 and 5 days after the last intranasal challenge. • These analyses comprise:
One Day after the Last Challenge • an analysis the of the respiratory function by non-invasive plethysmography on 10 mice per group. The respiratory function is analysed in response to an increasing dose of metacholine (broncho-constrictor). • recovery and analysis of the broncho-alveolar wash (count of the number of cells, and cytological analysis) on 5 mice. • dissection of the lungs for cytological analysis (microscopic study after staining) on the same 5 mice.
Five Days after the Last Challenge • an analysis of the pulmonary resistance by the forced oscillation technique (invasive method) on the 5 remaining mice of different groups. The pulmonary resistance is analyzed in response to an increasing dose of metacholine (bronchoconstrictor). • recovery and analysis of the broncho-alveolar wash (counting the number of cells, and deposition on a slide by cytospin for cytological analysis) on these 5 mice.
A compound group (1.1) (n=10), an i-cm group (cromoglycate, n=10) and an i-PBS group (n=10).
The compound (I.1) is dissolved in a DMSO solution. This stock solution is then diluted in an ethanol:PBS (vol:vol) solution before intraperitoneal administration.
The Penh (enhanced pause) values, calculated from plethysmography measurements, express the prolongation of the expiratory pause time observed in subjects having a reduction of the bronchial calibre and are correlated with the respiratory resistance. A decrease in the Penh values therefore corresponds to a protective effect towards bronchoconstriction induced by OVA.

normal human basophils = assay: Degranulation of normal human basophils after anti-IgE antibody, CD63 and CD203c expression by flow cytometry; format: cell-based; details: 4 donors; for Emax: Homo sapiens, effect-dose study, 1 to 100 micromolars; for dose effect, CD63 marker / dose effect, CD203c marker: between 1 and 100 micromolars, no plateau effect
From the text: The compounds according to the invention have a substantial protective activity towards the degranulation of normal human basophils, such that it may be evaluated by the overexpression of CD203c and of CD63 after exposure to an anti-IgE antibody. In particular, the concentration of the compound according to the invention giving the possibility of obtaining a 50% protective effect (with respect to a value of 100% corresponding to the control achieved in the absence of a compound according to the invention) belongs to the range from 1 to 100 micromolar.
a) Activity on the Degranulation of Normal Human Basophils CD203c and CD 63
This test consists of analyzing with flow cytometry the expression of the membrane markers CD203c and CD63 on normal human basophils. For this blood from healthy donors is exposed to an antibody directed against immunoglobulins E (IgE) which leads to activation and degranulation of the basophils, causing an increase in the expression of CD203c and CD63. […] As the compounds of interest are dissolved in dimethylsulfoxide (DMSO), a control is also produced by incubating the basophils in the presence of DMSO without any active ingredient.

[1] = flow cytometry cytology, compared with PBS group
[2] = read-out: maximum effect on CD63
[3] = read-out: maximum effect on CD203c

Compound | intrabronchial infiltrate (asthma model in mice; compared with PBS group) | T lymphocytes in the intrabronchial infiltrate (asthma model in mice; [1]) | eosinophils in the intrabronchial infiltrate (asthma model in mice; [1]) | intra-pulmonary hypereosinophilia (asthma model in mice; lungs, flow cytometry cytology) | respiratory function: Penh in response to increasing doses of metacholine (asthma model in mice; compared with PBS group) | Emax (normal human basophils; [2]) | Emax (normal human basophils; [3]) | dose effect, CD63 marker (normal human basophils) | dose effect, CD203c marker (normal human basophils)
COc1cc(OC)c(/C=C/C(=O)c2c(O)cc(OC)c(C3CCN(C)CC3)c2OC)c(OC)c1 [compound (I.1)] | significant decrease in the intrabronchial infiltrate | reduction | a reduction in the eosinophils | much less substantial | the difference is only significant for the dose at 40 mg/ml; also recorded: improves the respiratory function of the mice | 80% | 40% | A dose effect is observed | A dose effect is observed
COc1cccc(OC)c1/C=C/C(=O)c1c(O)cc(OC)c(C2CCN(C)CC2)c1OC [compound (I.2)] |  |  |  |  |  | 80% | 40% | A dose effect is observed | A dose effect is observed
COc1cc(O)c(C(=O)/C=C/c2c(Cl)cccc2Cl)c(OC)c1C1CCN(C)CC1 [compound (I.3)] |  |  |  |  |  | 80% | 40% | A dose effect is observed | A dose effect is observed
O=C(O)c1cc(=O)c2c(OCC(O)COc3cccc4oc(C(=O)O)cc(=O)c34)cccc2o1 [cromoglycate, reference compound] | does not exhibit any significant difference |  | does not show any significant reduction in the eosinophil infiltrate |  | same increases in Penh |  |  |  | 
